Source: US20070287666A1, “Modulator of gamma-secretase” (priority 2006, published 2007)
Where a chain is given by its changes, count along the chain named.

Legend:
ε-secretase = assay: Cadherin processing assay; type: biochemical; settings: in words
Method: Notch and cadherin cleavage assays were performed as described previously (27, 29).
Cadherin processing assay: Assays were performed as previously described (29). Briefly, cells were resuspended in 0.5 ml/35-mm dish of hypotonic buffer (10 mM MOPS, pH 7.0, 10 mM KCl) and homogenized on ice. A post-nuclear supernatant was prepared by centrifugation at 1000×g for 15 minutes at 4° C. Crude membranes were isolated from the post-nuclear supernatant by centrifugation at 16,000×g for 40 minutes at 4° C. The membranes were then resuspended in 25 μl of assay buffer (150 mM sodium citrate, pH 6.4, 1× Complete protease inhibitor cocktail, Roche), and incubated at 37° C. for 4 hours in the presence or absence of γ-secretase inhibitor (L-685,458, 1 μM). Samples were then analyzed by immunoblotting using C32 anti-N-cadherin and C36 anti-E-cadherin antibodies (BD Transduction Laboratories).

TMP21 = assay: Western blotting of target protein expression after siRNA knockdown; type: cell-based, human; settings: whole cells; in words
Method: siRNA-based knockdowns of target proteins were performed as described, in HEK-293 or blastocyst-derived cells (30). The oligonucleotide sequences are available in Supplementary Information.
siRNA-based knockdowns of target proteins were carried out as described (30). […] As negative controls, we used a mixture of four pooled scrambled siRNAs and mock transfections without siRNA. The expression level of target proteins was monitored by Western blotting with polyclonal anti-TMP21 or anti-p24a antibodies. Each of the individual oligonucleotide pairs where independently shown to suppress the relevant target protein (FIG. 8).

γ-secretase [1] = assay: Aβ assay (ELISA, immunoprecipitation-western blotting) of conditioned medium from whole cells; type: cell-based, human; settings: whole cells or cell-free γ-secretase assays; in words
Method: Aβ40 and Aβ42 levels were measured by ELISA and immunoprecipitation-western blotting as described previously, with the use of 12-24-h-conditioned medium collected from native HEK-293 cells or from HEK-293 cells stably overexpressing APP (APPswedish or APPwt) (3,24). They were resuspended in Assay Buffer (10 mM KOAc, 1.5 mM MgCl2, protease inhibitors (Roche), 75 mM sodium citrate, pH 6.4) and incubated at 0° C. or 37° C. for 2 or 4 hours (24). CHAPSO-solubilized membrane fractions from above cells were subjected to cell free γ-secretase assay as described below without addition of the C100-Flag substrate. Following adjustment to RIPA buffer, Aβ were captured by immmunoprecipitation with 6E10 antibody (Signet) and immunoblotted as described previously (24). ε-stubs were detected by Western blotting with anti-APP-CT antibody (Sigma).

γ-secretase [2] = target: T1, γ-secretase (Homo sapiens, UniProt P49768); assay: γ-secretase reconstituted in yeast, APPC1-55/Gal4 lacZ reporter assay; type: cell-based, S. cerevisiae; set-up: expressed in transfected cells; host or cells: S. cerevisiae (strains PMY1 and DEY1); settings: co-expression with PS1, NCT, APH-1, PEN-2; wt or V717I APP reporter; in words
Text: Core γ-secretase enzyme activity of the mammalian CNS was reconstituted in S. cerevisiae by co-expression of human presenilin 1 (PS1), nicastrin (NCT), APH-1 and PEN-2 in accordance with the method described by Edbauer (12), with activity measured via endoproteolytic release of a Gal4 transcriptional activator from an APPC1-55 juxtamembrane region and trans activation of a β-galactosidase reporter gene. While a starting configuration performed slightly above the baseline of cells lacking γ-secretase subunits, non-fermentable carbon sources favoring oxidative metabolism increased output up to 100-fold and allowed profiling of the system. As in mammalian cells, activity was greater with wt PS1 than wt PS2, sensitive to missense mutations of APP substrate near the Aβ42 site, and was modulated by the membrane protein TMP21.
Besides the production of Aβ-related peptide fragments identified by mass spectroscopy, enzyme activity was measured via a transcriptional reporter assay wherein endoproteolysis of a membrane-tethered APPC1-55/Gal4 fusion protein results in the release of a Gal4 transcriptional activator capable of driving a reporter gene (lacZ) with a colorimetric output. Effect of TMP21, Erv25p and Emp24p on reporter activity and PS1 processing

γ-secretase [3] = target: T1, γ-secretase; assay: Cell-free γ-secretase assay with immunopurified PS1 complexes and C100-Flag substrate; type: biochemical; set-up: PS1 complex was isolated by immunoprecipitation from CHAPSO extracted membranes; endogenous in cells; host or cells: HEK-293 (also SHSY-5Y) CHAPSO-solubilized membranes, anti-PS1 (A4) immunoprecipitate; settings: exogenous protein added to immunopurified TMP21-deficient PS1 complexes; in words
Method: Cell-free γ-secretase assays with endogenous APP were performed on microsome membranes from HEK-293 cells stably over expressing APPswedish with or without TMP21 RNAi treatments as described previously (24). ε-stubs were detected by western blotting with anti-APP-CT antibody (Sigma). Cell-free γ-secretase assay was performed as described (7, 13), with exogenous APP-C100 as the substrate was performed with recombinant APP-C100 peptides, wherein PS1 complex was isolated by immunoprecipitation from CHAPSO extracted membranes and combined with the recombinant C100 substrate and the generation of Aβ is determined by ELISA and AICD production is monitored by western blotting. More particularly, the peptides were generated from a prokaryotic expression vector encoding the C-terminal 100 amino acids (596-695) of human APP (695-residue isoform) followed by Flag and His6 sequences (C100-Flag-His6). This was generated by PCR and cloning into pQE60 (Qiagen). […] The generated Aβ was analyzed by immunoblotting or ELISA (Biosource).
Solubilized γ-secretase was prepared as described (7,13). […] Following addition of the C100-Flag substrate (˜0.5 μM) to 50 μl of the solubilized γ-secretase preparation the reaction mixture was incubated for 6 hrs at 37° C. and Aβ products detected by ELISA and Western blotting. […]

With `CC(C)C[C@H](NC(=O)[C@H](Cc1ccccc1)C[C@@H](O)[C@H](Cc1ccccc1)NC(=O)OC(C)(C)C)C(=O)N[C@@H](Cc1ccccc1)C(N)=O` [L685,458] the “ε-cleavage of E-cadherin or N-cadherin substrates (CAD/CTF1) to CAD/CTF2” value (ε-secretase) was “specifically inhibited”.

For “p24a siRNA: p24a siRNA oligos (SEQ ID NO:12, 13) and p24a pooled oligos, Dharmacon (chain 1 AACCGGATGTCCACCATGACT; chain 2 ACAGAGCCATCAACGACAA; bought from Dharmacon, further chemistry not given here)”, the “total cellular TMP21 levels / expression” value (TMP21) was “decrease” and the “effect on Aβ production” value (γ-secretase [1]) was “no effect”.

B1: TMP21: 219-amino-acid type 1 transmembrane protein, member of the p24 cargo-protein family (accession number Q9D1D4); expressed from cDNA (protein, UniProt Q9D1D4 32-219, looked up)
Transmembrane emp24 …: ISFHLPVNSRKCLREEIHKDLLVTGAYEITDQSGGAGGLRTHLKITDSAGHILYAKEDATKGKFAFTTEDYDMFEVCFESKGTGRIPDQLVILDMKHGVEAKNYEEIAKVEKLKPLEVELRRLEDLSESIVNDFAYMKKREEEMRDTNESTNTRVLYFSIFSMFCLIGLATWQVFYLRRFFKAKKLIE
In the case of B1, the lacZ reporter activity (γ-secretase [2]) is reported as “markedly reduced” and the “effect on Aβ production” value (γ-secretase [1]) is reported as “no discernible effect”.

B2: TMP21-Flag: TMP21 tagged at the C terminus with the Flag epitope, immunopurified from HEK-293 cells (protein)
chain: B1 Transmembrane emp24 … with V7I, T30S, T41S, A55S
modifications: left off: small tags and cut ends
B2 was tested, and the “Aβ production after complementation of TMP21-deficient PS1 complexes” value (γ-secretase [3]) was “reverted to normal”.
